{"source": "paper PMC8080530", "about": "“Glucocorticoid receptor Thr524 phosphorylation by MINK1 induces interactions with 14-3-3 protein regulators” (The Journal of Biological Chemistry, 2021)", "target": "T1, 14-3-3ζ (Homo sapiens, UniProt P63104)", "T1 construct": "Full-length expression and purification of 14-3-3; made in house; host or cells: E. coli BL21 (DE3)STAR", "T1 sequence (P63104 1-245)": "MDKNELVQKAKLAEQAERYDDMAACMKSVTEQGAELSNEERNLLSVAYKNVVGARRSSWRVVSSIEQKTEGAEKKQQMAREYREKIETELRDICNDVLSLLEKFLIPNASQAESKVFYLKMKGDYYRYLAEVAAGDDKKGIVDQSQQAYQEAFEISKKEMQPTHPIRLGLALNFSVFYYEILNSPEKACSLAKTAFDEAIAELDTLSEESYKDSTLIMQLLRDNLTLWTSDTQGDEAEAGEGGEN", "assay": "FP assay with GR phosphorylated peptides and 14-3-3ζ", "assay_type": "binding", "protocol": "After 30-min incubation at RT, the plates were read on a plate reader PHERAstar (BMG LABTECH GmbH) for FP signal using […] and standard excitation (485 nm) and emission (520 nm). Measurements were performed as triplicates. Binding data were fit to a standard Hill equation using the software Genedata Screener. The figures were made using the software GraphPad Prism 8. FP data were expressed as millipolarization (mP) units, and the dynamic range (ΔmP) was the difference of the signals from the bound peptide and free peptide. Errors are the standard error of the fit.", "key": {"[1]": {"details": "read-out: PKd with 14-3-3ζ (converted)"}, "[2]": {"details": "FITC-labeled peptide 60 nM (monophosphorylated) or 10 nM (doubly phosphorylated) titrated with 14-3-3ζ, 30 min RT, Hill fit, triplicates, read-out: Kd with 14-3-3ζ by FP"}, "[3]": {"details": "FP, doubly phosphorylated 31-mer peptides, triplicates, read-out: Kd with 14-3-3ζ (values in nM)"}}, "note": "Like-named read-outs stand apart in the source and are kept apart here. Non-standard residues stand in square brackets, D forms with d. Residues, ends and D or L forms follow the SMILES beside them. pT = C[C@@H](OP(=O)(O)O)[C@H](N)C(=O)O; pS = N[C@@H](COP(=O)(O)O)C(=O)O", "data": [{"smiles": "CC[C@H](C)[C@H](NC(=O)[C@@H](NC(=O)[C@@H](N)CCCCN)[C@@H](C)O)C(=O)N[C@H](C(=O)N1CCC[C@H]1C(=O)N[C@@H](C)C(=O)N[C@H](C(=O)N[C@@H](CC(C)C)C(=O)N1CCC[C@H]1C(=O)N[C@@H](CCC(N)=O)C(=O)N[C@@H](CC(C)C)C(=O)N[C@H](C(=O)N1CCC[C@H]1C(=O)NCC(=O)NCC(=O)NCC(=O)NCC(=O)NCC(=O)N[C@@H](CCCNC(=N)N)C(=O)N[C@@H](CO)C(=O)N[C@@H](Cc1ccc(O)cc1)C(=O)N[C@@H](CCCNC(=N)N)C(=O)N[C@@H](CCC(N)=O)C(=O)N[C@@H](CO)C(=O)N[C@@H](COP(=O)(O)O)C(=O)N[C@@H](C)C(=O)N[C@@H](C)C(=O)N[C@@H](CC(C)C)C(=O)N[C@@H](CC(C)C)C(=O)N[C@@H](CS)C(=O)N[C@@H](Cc1ccccc1)C(=O)O)[C@@H](C)O)[C@@H](C)OP(=O)(O)O)C(C)C", "note": "[GR_N619A] (H-KTIVPA[pT]LPQLTPGGGGGRSYRQS[pS]AALLCF-OH)", "values": [{"measurement": "Kd", "setting": "[1]", "value": 39.8, "unit": "nM"}]}, {"smiles": "CC[C@H](C)[C@H](NC(=O)[C@H](CCC(N)=O)NC(=O)CNC(=O)[C@@H](N)CCC(N)=O)C(=O)N[C@@H](CO)C(=O)N[C@@H](CC(C)C)C(=O)N[C@@H](COP(=O)(O)O)C(=O)N[C@@H](CO)C(=O)NCC(=O)N[C@@H](CCC(=O)O)C(=O)N[C@H](C(=O)N[C@@H](CC(=O)O)C(=O)N[C@@H](CC(C)C)C(=O)O)[C@@H](C)O", "note": "[GR_pS113] (H-QGQISL[pS]SGETDL-OH; N-terminus and C-terminus assumed)", "values": [{"measurement": "Kd", "setting": "[2]", "value": "> 150000", "unit": "nM"}]}, {"smiles": "CC(C)C[C@H](N)C(=O)N[C@@H](CCC(=O)O)C(=O)N[C@@H](Cc1ccccc1)C(=O)N[C@@H](CO)C(=O)N[C@@H](CO)C(=O)NCC(=O)N[C@@H](COP(=O)(O)O)C(=O)N1CCC[C@H]1C(=O)NCC(=O)N[C@@H](CCCCN)C(=O)N[C@@H](CCC(=O)O)C(=O)N[C@H](C(=O)N[C@@H](CC(N)=O)C(=O)O)[C@@H](C)O", "note": "[GR_pS203] (H-LEFSSG[pS]PGKETN-OH; N-terminus assumed)", "values": [{"measurement": "Kd", "setting": "[2]", "value": "> 150000", "unit": "nM"}]}, {"smiles": "CC[C@H](C)[C@H](NC(=O)[C@@H](NC(=O)[C@@H](N)CCCCN)[C@@H](C)O)C(=O)N[C@H](C(=O)N1CCC[C@H]1C(=O)N[C@@H](C)C(=O)N[C@@H](COP(=O)(O)O)C(=O)N[C@@H](CC(C)C)C(=O)N1CCC[C@H]1C(=O)N[C@@H](CCC(N)=O)C(=O)N[C@@H](CC(C)C)C(=O)N[C@H](C(=O)N1CCC[C@H]1C(=O)NCC(=O)NCC(=O)NCC(=O)NCC(=O)NCC(=O)N[C@@H](CCCNC(=N)N)C(=O)N[C@@H](CO)C(=O)N[C@@H](Cc1ccc(O)cc1)C(=O)N[C@@H](CCCNC(=N)N)C(=O)N[C@@H](CCC(N)=O)C(=O)N[C@@H](CO)C(=O)N[C@@H](COP(=O)(O)O)C(=O)N[C@@H](C)C(=O)N[C@@H](CC(N)=O)C(=O)N[C@@H](CC(C)C)C(=O)N[C@@H](CC(C)C)C(=O)N[C@@H](CS)C(=O)N[C@@H](Cc1ccccc1)C(=O)O)[C@@H](C)O)C(C)C", "note": "[GR_pS524-pS617] (H-KTIVPA[pS]LPQLTPGGGGGRSYRQS[pS]ANLLCF-OH)", "values": [{"measurement": "Kd", "setting": "[3]", "value": 140, "unit": "nM"}]}, {"smiles": "CC[C@H](C)[C@H](NC(=O)[C@@H](NC(=O)[C@@H](N)CCCCN)[C@@H](C)O)C(=O)N[C@H](C(=O)N1CCC[C@H]1C(=O)N[C@@H](C)C(=O)N[C@H](C(=O)N[C@@H](CC(C)C)C(=O)N1CCC[C@H]1C(=O)N[C@@H](CCC(N)=O)C(=O)N[C@@H](CC(C)C)C(=O)N[C@H](C(=O)N1CCC[C@H]1C(=O)NCC(=O)NCC(=O)NCC(=O)NCC(=O)NCC(=O)N[C@@H](CCCNC(=N)N)C(=O)N[C@@H](CO)C(=O)N[C@@H](Cc1ccc(O)cc1)C(=O)N[C@@H](CCCNC(=N)N)C(=O)N[C@@H](CCC(N)=O)C(=O)N[C@@H](CO)C(=O)N[C@@H](COP(=O)(O)O)C(=O)N[C@@H](C)C(=O)N[C@@H](CC(N)=O)C(=O)N[C@@H](CC(C)C)C(=O)N[C@@H](CC(C)C)C(=O)N[C@@H](CS)C(=O)N[C@@H](C)C(=O)O)[C@@H](C)O)[C@@H](C)OP(=O)(O)O)C(C)C", "note": "[GR_F623A] (H-KTIVPA[pT]LPQLTPGGGGGRSYRQS[pS]ANLLCA-OH)", "values": [{"measurement": "Kd", "setting": "[1]", "value": 50.1, "unit": "nM"}]}, {"smiles": "CC(C)C[C@H](NC(=O)[C@H](CO)NC(=O)[C@@H]1CCCN1C(=O)[C@H](COP(=O)(O)O)NC(=O)[C@H](CO)NC(=O)[C@H](C)NC(=O)[C@H](CO)NC(=O)[C@@H](NC(=O)[C@H](CCCCN)NC(=O)[C@@H](N)C(C)C)C(C)C)C(=O)N[C@@H](C)C(=O)N[C@H](C(=O)N[C@@H](C)C(=O)O)C(C)C", "note": "[GR_pS45] (H-VKVSAS[pS]PSLAVA-OH; N-terminus assumed)", "values": [{"measurement": "Kd", "setting": "[2]", "value": "> 150000", "unit": "nM"}]}, {"smiles": "CC[C@H](C)[C@H](NC(=O)[C@H](CCCNC(=N)N)NC(=O)[C@H](Cc1c[nH]c2ccccc12)NC(=O)[C@@H](N)[C@@H](C)O)C(=O)N[C@@H](CCSC)C(=O)N[C@H](C(=O)N[C@H](C(=O)N[C@@H](CC(C)C)C(=O)N[C@@H](CC(N)=O)C(=O)N[C@@H](CCSC)C(=O)N[C@@H](CC(C)C)C(=O)NCC(=O)NCC(=O)O)[C@@H](C)OP(=O)(O)O)[C@@H](C)O", "note": "[GR_pT562]", "values": [{"measurement": "Kd", "setting": "method not given, read-out: Kd with 14-3-3ζ", "value": 200000, "unit": "nM"}]}, {"smiles": "CC[C@H](C)[C@H](NC(=O)[C@H](C)NC(=O)[C@@H](N)CCCCN)C(=O)N[C@H](C(=O)N1CCC[C@H]1C(=O)N[C@@H](C)C(=O)N[C@H](C(=O)N[C@@H](CC(C)C)C(=O)N1CCC[C@H]1C(=O)N[C@@H](CCC(N)=O)C(=O)N[C@@H](CC(C)C)C(=O)N[C@H](C(=O)N1CCC[C@H]1C(=O)NCC(=O)NCC(=O)NCC(=O)NCC(=O)NCC(=O)N[C@@H](CCCNC(=N)N)C(=O)N[C@@H](CO)C(=O)N[C@@H](Cc1ccc(O)cc1)C(=O)N[C@@H](CCCNC(=N)N)C(=O)N[C@@H](CCC(N)=O)C(=O)N[C@@H](CO)C(=O)N[C@@H](COP(=O)(O)O)C(=O)N[C@@H](C)C(=O)N[C@@H](CC(N)=O)C(=O)N[C@@H](CC(C)C)C(=O)N[C@@H](CC(C)C)C(=O)N[C@@H](CS)C(=O)N[C@@H](Cc1ccccc1)C(=O)O)[C@@H](C)O)[C@@H](C)OP(=O)(O)O)C(C)C", "note": "[GR_T519A] (H-KAIVPA[pT]LPQLTPGGGGGRSYRQS[pS]ANLLCF-OH)", "values": [{"measurement": "Kd", "setting": "[1]", "value": 63.1, "unit": "nM"}]}, {"smiles": "CC[C@H](C)[C@H](NC(=O)[C@@H](NC(=O)[C@@H](N)CCCCN)[C@@H](C)O)C(=O)N[C@H](C(=O)N[C@@H](C)C(=O)N[C@@H](C)C(=O)N[C@H](C(=O)N[C@@H](CC(C)C)C(=O)N1CCC[C@H]1C(=O)N[C@@H](CCC(N)=O)C(=O)N[C@@H](CC(C)C)C(=O)N[C@H](C(=O)N1CCC[C@H]1C(=O)NCC(=O)NCC(=O)NCC(=O)NCC(=O)NCC(=O)N[C@@H](CCCNC(=N)N)C(=O)N[C@@H](CO)C(=O)N[C@@H](Cc1ccc(O)cc1)C(=O)N[C@@H](CCCNC(=N)N)C(=O)N[C@@H](CCC(N)=O)C(=O)N[C@@H](CO)C(=O)N[C@@H](COP(=O)(O)O)C(=O)N[C@@H](C)C(=O)N[C@@H](CC(N)=O)C(=O)N[C@@H](CC(C)C)C(=O)N[C@@H](CC(C)C)C(=O)N[C@@H](CS)C(=O)N[C@@H](Cc1ccccc1)C(=O)O)[C@@H](C)O)[C@@H](C)OP(=O)(O)O)C(C)C", "note": "[GR_P522A] (H-KTIVAA[pT]LPQLTPGGGGGRSYRQS[pS]ANLLCF-OH)", "values": [{"measurement": "Kd", "setting": "[1]", "value": 63.1, "unit": "nM"}]}, {"smiles": "CC[C@H](C)[C@H](NC(=O)[C@@H](NC(=O)[C@@H](N)CCCCN)[C@@H](C)O)C(=O)N[C@H](C(=O)N1CCC[C@H]1C(=O)N[C@@H](C)C(=O)N[C@H](C(=O)N[C@@H](CC(C)C)C(=O)N1CCC[C@H]1C(=O)N[C@@H](CCC(N)=O)C(=O)N[C@@H](CC(C)C)C(=O)N[C@H](C(=O)N1CCC[C@H]1C(=O)NCC(=O)NCC(=O)NCC(=O)NCC(=O)NCC(=O)N[C@@H](CCCNC(=N)N)C(=O)N[C@@H](CO)C(=O)N[C@@H](Cc1ccc(O)cc1)C(=O)N[C@@H](C)C(=O)N[C@@H](CCC(N)=O)C(=O)N[C@@H](CO)C(=O)N[C@@H](COP(=O)(O)O)C(=O)N[C@@H](C)C(=O)N[C@@H](CC(N)=O)C(=O)N[C@@H](CC(C)C)C(=O)N[C@@H](CC(C)C)C(=O)N[C@@H](CS)C(=O)N[C@@H](Cc1ccccc1)C(=O)O)[C@@H](C)O)[C@@H](C)OP(=O)(O)O)C(C)C", "note": "[GR_R614A] (H-KTIVPA[pT]LPQLTPGGGGGRSYAQS[pS]ANLLCF-OH)", "values": [{"measurement": "Kd", "setting": "[3]", "value": 220, "unit": "nM"}]}, {"smiles": "CC[C@H](C)[C@H](NC(=O)[C@@H](NC(=O)[C@@H](N)CCCCN)[C@@H](C)O)C(=O)N[C@H](C(=O)N1CCC[C@H]1C(=O)N[C@@H](C)C(=O)N[C@H](C(=O)N[C@@H](CC(C)C)C(=O)N1CCC[C@H]1C(=O)N[C@@H](CCC(N)=O)C(=O)N[C@@H](CC(C)C)C(=O)N[C@H](C(=O)N1CCC[C@H]1C(=O)NCC(=O)NCC(=O)NCC(=O)NCC(=O)NCC(=O)N[C@@H](C)C(=O)N[C@@H](CO)C(=O)N[C@@H](Cc1ccc(O)cc1)C(=O)N[C@@H](CCCNC(=N)N)C(=O)N[C@@H](CCC(N)=O)C(=O)N[C@@H](CO)C(=O)N[C@@H](COP(=O)(O)O)C(=O)N[C@@H](C)C(=O)N[C@@H](CC(N)=O)C(=O)N[C@@H](CC(C)C)C(=O)N[C@@H](CC(C)C)C(=O)N[C@@H](CS)C(=O)N[C@@H](Cc1ccccc1)C(=O)O)[C@@H](C)O)[C@@H](C)OP(=O)(O)O)C(C)C", "note": "[GR_R611A] (H-KTIVPA[pT]LPQLTPGGGGGASYRQS[pS]ANLLCF-OH)", "values": [{"measurement": "Kd", "setting": "[1]", "value": 50.1, "unit": "nM"}]}]}
